From ChEMBL document CHEMBL3045149, “Antifeedant activity of dihydro--agarofuran sesquiterpenes from Celastraceae against Spodoptera littoralis” (1992)

Tests used:
Type in all cases: functional
[1] = tested on: Spodoptera littoralis; test: Antifeedant activity against Spodoptera littoralis fifth-instar larvae reared on compound exposed lettuce disks assessed as feeding ratio when 50% of control leaf disk area consumed at 1 ug/cm2 measured for 4 to 5 hr by leaf disk choice method
[2] = tested on: Spodoptera littoralis; test: Antifeedant activity against Spodoptera littoralis fifth-instar larvae reared on compound exposed lettuce disks assessed as feeding ratio when 50% of control leaf disk area consumed at 10 ug/cm2 measured for 4 to 5 hr by leaf disk choice method
[3] = tested on: Spodoptera littoralis; test: Antifeedant activity against Spodoptera littoralis fifth-instar larvae reared on compound exposed lettuce disks assessed as feeding ratio when 50% of control leaf disk area consumed at 0.1 ug/cm2 measured for 4 to 5 hr by leaf disk choice method
[4] = tested on: Spodoptera littoralis; test: Antifeedant activity against Spodoptera littoralis fifth-instar larvae reared on compound exposed lettuce disks assessed as leaf disk protection at 10 to 1 ug/cm2 measured for 4 to 5 hr by leaf disk choice method

Question: Which results are given for `CC(=O)OC[C@@]12[C@@H](OC(=O)c3ccccc3)CC[C@](C)(O)[C@]13OC(C)(C)[C@H]([C@@H](OC(C)=O)[C@H]2OC(=O)c1ccccc1)[C@H]3OC(C)=O`?
Answer: FR50 [1]: 0.58; FR50 [2]: 0.24

Question: `CC(=O)O[C@@H]1[C@@H](O)[C@@H]2[C@@H](OC(=O)c3cccnc3)[C@@]3(OC2(C)C)[C@@]1(C)[C@@H](OC(=O)c1ccccc1)CC[C@]3(C)O` was tested. Which FR50 [2] did it give?
Answer: 0.74

Question: What does the source list for `CC(=O)OC[C@]12[C@@H](OC(=O)c3ccccc3)[C@H](OC(C)=O)[C@@H]3[C@@H](OC(C)=O)[C@]1(OC3(C)C)[C@H](C)C[C@H](OC(C)=O)[C@@H]2OC(C)=O`?
Answer: FR50 [1]: 0.71; FR50 [2]: 0.13

Question: With `CC(=O)O[C@H]1C[C@@H]2[C@@H](OC(=O)c3cccnc3)[C@@]3(OC2(C)C)[C@@]1(C)[C@@H](OC(=O)c1ccccc1)CC[C@]3(C)O` as the compound, how does the FR50 [2] read?
Answer: 0.68

Question: Which FR50 [3] does the source give for `CCC(C)C(=O)O[C@H]1[C@H](O)C[C@@H]2[C@@](C)([C@@H]3C[C@H]4C=CO[C@H]4O3)[C@H](C)C[C@H](OC(C)=O)[C@@]2(COC(C)=O)[C@@]12CO2` (stereo partly drawn) [AJUGAPITIN] here?
Answer: 0.41

Question: `CC(=O)O[C@H]1C[C@@H](C)[C@]23OC(C)(C)[C@H](C[C@H](OC(=O)c4ccccc4)[C@]2(CO)[C@H]1OC(C)=O)[C@H]3OC(C)=O` was tested. Which FR50 [2] did it give?
Answer: 0.36

Question: `CC(=O)OC[C@@]12[C@@H](OC(=O)/C=C/c3ccccc3)CC[C@](C)(O)[C@]13OC(C)(C)[C@H]([C@@H](OC(C)=O)[C@H]2OC(=O)c1ccccc1)[C@H]3OC(C)=O` was tested. Which FR50 [2] did it give?
Answer: 0.27

Question: With `CC(=O)O[C@H]1[C@H](OC(=O)c2ccccc2)[C@@]2(C)[C@@H](OC(=O)c3ccccc3)C[C@@H]3[C@@H](OC(C)=O)[C@]2(OC3(C)C)[C@@](C)(O)[C@H]1O` [2BETA,3BETA,4BETA,TRIHYDROXYCELARBICO] as the compound, how does the FR50 [1] read?
Answer: 0.44

Question: And the FR50 [2]?
Answer: 0.24

Question: With `CC(=O)O[C@@H]1[C@@H]2[C@@H](OC(C)=O)[C@]3(OC2(C)C)[C@H](C)C[C@H](OC(C)=O)[C@H](OC(C)=O)[C@@]3(CO)[C@H]1OC(=O)c1ccccc1` as the compound, how does the FR50 [1] read?
Answer: 0.53

Question: What about the FR50 [2] of the same compound?
Answer: 0.07

Question: For `CC(=O)OC[C@]12[C@@H](OC(=O)c3ccccc3)C[C@@H]3[C@@H](OC(C)=O)[C@]1(OC3(C)C)[C@H](C)C[C@H](OC(C)=O)[C@@H]2OC(C)=O`, which FR50 [1] is on record?
Answer: 0.54

Question: And the FR50 [2]?
Answer: 0.19

Question: Which FR50 [1] does the source give for `CC(=O)O[C@H]1[C@@H]2[C@@H](OC(C)=O)[C@@]3(OC2(C)C)[C@@](C)([C@@H](OC(=O)c2ccccc2)CC[C@]3(C)O)[C@@H]1OC(C)=O` here?
Answer: 0.4

Question: And the FR50 [2]?
Answer: 0.12

Question: How did the FR50 [2] turn out when `CC(=O)OC[C@]12[C@H](OC(=O)c3ccccc3)[C@H](OC(C)=O)[C@@H]3[C@@H](OC(C)=O)[C@]1(OC3(C)C)[C@@](C)(O)C[C@H](OC(C)=O)[C@@H]2OC(=O)c1ccccc1` was run?
Answer: 0.35

Question: For `CC(=O)O[C@@H]1[C@@H]2[C@@H](OC(C)=O)[C@]3(OC2(C)C)[C@H](C)C[C@H](OC(C)=O)[C@H](OC(C)=O)[C@@]3(CO)[C@@H]1OC(=O)c1ccccc1`, which FR50 [1] is on record?
Answer: 0.65

Question: And the FR50 [2]?
Answer: 0.16

Question: How did the FR50 [2] turn out when TRIPHENYLSTANNYL ACETATE was run?
Answer: 0.37

Question: What does the source list for `CC(=O)O[C@H]1[C@@H]2[C@@H](OC(=O)c3cccnc3)[C@@]3(OC2(C)C)[C@@](C)([C@@H](OC(=O)c2ccccc2)CC[C@]3(C)O)[C@@H]1OC(C)=O`?
Answer: Activity [4]: 100%; FR50 [3]: 0.45; FR50 [1]: 0.15; FR50 [2]: 0.04

Question: With `CC(=O)O[C@H]1[C@@H]2C[C@@]3(OC2(C)C)[C@](C)([C@H]1OC(=O)c1ccccc1)[C@@H](OC(=O)c1ccccc1)[C@H](OC(C)=O)[C@H](OC(C)=O)[C@]3(C)O` [2BETA,3BETA,4BETA-TRIHYDROXYCELAPANOL] as the compound, how does the FR50 [2] read?
Answer: 0.38

Question: How did the FR50 [3] turn out when `CC[C@H](C)C(=O)O[C@H]1[C@H](O)C[C@@H]2[C@@](C)([C@@H]3C[C@H]4CCO[C@H]4O3)[C@H](C)C[C@H](OC(C)=O)[C@@]2(COC(C)=O)[C@@]12CO2` [14,15-DIHYDROAJUGAPITIN] was run?
Answer: 0.32

Question: With `CCC(C)C(=O)O[C@H]1[C@H](OC(C)=O)C[C@@H]2[C@@](C)([C@@H]3C[C@H]4CCO[C@H]4O3)[C@H](C)C[C@H](OC(C)=O)[C@@]2(COC(C)=O)[C@@]12CO2` (stereo partly drawn) [2-acetyl-14,15-dihydroajugapitin] as the compound, how does the FR50 [3] read?
Answer: 0.62
